For 64 compounds, melting point results are on record in a melting point compilation (Tetko et al.; mined from patent text by program, amines drawn as free bases though some values may be those of a salt).

Some results are limits rather than exact numbers.

As to `CC12CC3CC(C1)CC(CNC(=O)n1cc(F)c(=O)[nH]c1=O)(C3)C2`, the melting point (usually the temperature, or range, at which the solid turns liquid) was 172 °C.

`NC(C(=O)O)c1ccc(C(=O)O)c(O)c1CCCc1ccccc1` (centres undefined): the melting point was more than 250 °C.

As for `Cc1cc(C)cc(NC(=O)NC2N=C(c3ccccc3)c3ccccc3N(C)C2=O)c1` (centres undefined), the melting point was in the range of 267 to 269 °C.

As to `Cc1nc(N2C[C@H](C)N(Cc3ccc(F)cc3)C2=O)sc1C(N)=O`, the melting point was 185 to 186 °C.

`CCCCOC(=O)/C=C/c1ccc2c(=O)n(CC(C)C)c(CNC(=O)OC(C)(C)C)c(-c3ccc(Cl)cc3)c2c1`: the melting point lay within 149 to 150 °C.

`CCOC(=O)C(=O)Nc1c([N+](=O)[O-])sc2ccc(F)cc12` yielded a melting point of 129 to 131 °C.

As to `CC(=O)c1ccc(-c2ccc(Br)cc2C)cc1`, the melting point was 84 to 86 °C.

In turn, `CCn1cccc1C(N)=S` displayed a melting point of 71.5 to 74.5 °C.

In turn, `COC(=O)c1sc2c(c1N=CN(C)C)c1ccccc1c(=O)n2-c1ccccc1` returned a melting point of 225 to 227 °C.

Consider `CCOC(=O)COc1ccccc1C(O)(CC)c1cccc(Cl)c1` (centres undefined), for which the melting point lay within 83 to 84 °C.

`CC(C)(C)C(=O)C(Br)c1ccccc1` (centres undefined) displayed a melting point of 38 to 42 °C.

In the case of `COc1ccc(OC(C(=O)N(C)C)C2(O)CCCCC2)cc1` (centres undefined), the melting point lay within 98 to 99 °C.

For `Cc1cc(C(N)=O)ncc1C(c1c(F)ccc(F)c1F)S(=O)(=O)CCC(Cl)(Cl)Cl` (centres undefined), the melting point is 173 to 175 °C.

In turn, `C=C1CCC23OC2(C1)CC(C)C1C2CCC(O)C2(C)CCC13` (centres undefined) gave a melting point of 125 °C.

The compound `COc1cc(C)nc2c(O)cccc12` returned a melting point of 110 to 112 °C.

The compound `COc1cccc(C(=O)c2cccc(Cl)c2)c1` displayed a melting point of 52 °C.

As to `CCCNC(=O)c1ccc(-c2ccc3nnn(Cc4ccc5ncccc5c4)c3n2)cc1F`, the melting point was in the range of 157 to 159 °C.

Take `CC(C)CN(Cc1nc(-c2ncn3c2CN(C)C(=O)c2ccccc2-3)no1)CC(C)C`: the melting point lay within 170 to 172 °C.

In turn, `CCS(=O)(=O)N[C@H](C(=O)NCCc1ccc(OCc2ccccc2)c(OC)c1)C(C)C` returned a melting point of 140 to 142 °C.

`O=C(O)COc1ccccc1-c1ccc(Cl)c(C(=O)NCC23CC4CC(CC(C4)C2)C3)c1` had a melting point of 208 to 210 °C.

`Cc1cc2c(c(C(C)(C)C)c1)OC(=O)C2c1ccc2c(c1)c1ccccc1n2C` (centres undefined) displayed a melting point of 84 to 90 °C.

`O=C(CC(=O)C(F)(F)F)c1ccc(OCc2ccccc2)cc1` registered a melting point of 220 to 224 °C.

`CCCc1c(N)c(C(N)=O)nn1C` showed a melting point of 170 to 174 °C.

The compound `Cc1c[nH]c(-c2ccc(OCC(O)CO)cc2)n1` (centres undefined) gave a melting point of 196 to 199 °C.

On to `Oc1ccc(Oc2ccc(Oc3ccc(O)cc3)cc2)cc1`, for which the melting point is 187 to 189 °C.

With `c1ccc(Cn2c(-c3ccc4c(c3)OCCO4)nc3cccnc32)cc1`, the melting point is 156 to 158 °C.

`Cc1cc2c(c(C3=NNC(=O)CC3C)c1)OCCN2` (centres undefined) had a melting point of 160 to 162 °C.

In the case of `Cc1cc(NSc2ccccc2[N+](=O)[O-])ccc1Oc1ncc(Cl)cn1`, the melting point lay in the range of 74 to 85 °C.

`COc1ccc(-c2c(CO)c(CO)c3n2Cc2ccccc2C3)cc1` came in with a melting point of 174 to 176 °C.

`O=C(NOCCO)c1cc(Cl)c(F)c(F)c1Nc1ccc(I)cc1` came in with a melting point of 174 to 176 °C.

`C#CCn1cc(C(=O)OCC)sc1=O`: the melting point lay in the range of 70 to 71 °C.

Turning to `O=c1[nH]c2cc3nc(-c4ccncc4)[nH]c3cc2[nH]c1=O`, the melting point is more than 300 °C.

For the compound `NCCc1ccc(N2C(=O)N(c3ccc(Cl)cc3Cl)Cc3cnc(Nc4ccccc4)nc32)cc1`, the melting point lay in the range of 117 to 121 °C.

In turn, `COc1ccc(-c2nc(-c3ccn4c3CCC4)[nH]c2-c2ccc(OC)cc2)cc1` had a melting point of 238 °C.

`CSC1CCn2c(CCc3ccccc3)nc3cccc1c32` (centres undefined) displayed a melting point of 62.1 to 74.1 °C.

Take `COc1ccc(-c2coc3cc(OCC(O)CNC4CCCCC4)ccc3c2=O)cc1OC` (centres undefined): the melting point was 70 to 71 °C.

With `Nc1nc2ccccc2c2c1ncn2COCc1ccccc1`, the melting point was 168 to 172 °C.

For `O=C1c2ccccc2C(=O)N1C[C@H]1COc2ccc(Cl)cc2O1`, the melting point was 174 to 176 °C.

The compound `CN(C)c1ccc(-c2nc3cccnc3o2)cc1` registered a melting point of 168 to 170 °C.

`Cc1cn(C2(C(=O)N(C)C)CCCC2)nc1-c1ccccc1` displayed a melting point of 99 to 101 °C.

`CC(C)OC(=O)C=Cc1cc(N)ccc1Cl` had a melting point of 98 to 100 °C.

`CCOc1nc(N)nc2sc(-c3ccc(F)cc3)cc12` registered a melting point of 142 °C.

The compound `COc1cc(OC)nc(O[C@H]2CCCC[C@H]2C(=O)O)n1` (relative stereo) had a melting point of 151 to 152 °C.

Compound `O=C(O)Cc1ccc2c(c1)C(=O)c1ccc(Cl)cc1CO2` displayed a melting point of 188 to 190 °C.

For `C1=C(c2c[nH]c3ccccc23)CN(Cc2ccccc2)CC1`, the melting point fell in the range of 105 to 107 °C.

For the compound `COC(=O)C1c2ccccc2C2C(=O)NCCN21` (centres undefined), the melting point is 165 to 167 °C.

The compound `N#Cc1cn(Cc2c(F)cccc2F)nn1` showed a melting point of 116 °C.

`COc1ccc(CNC(=O)Nc2ccc(CN3C(=O)[C@H]4CCC[C@H]4N(C(=O)CCl)c4ccccc43)cc2)cc1` (relative stereo) yielded a melting point of 225 to 226 °C.

`CC(=O)SCc1nccc(SCCCSc2ccc3ncc([N+](=O)[O-])n3n2)c1C`: the melting point was 138 to 140 °C.

In turn, `COc1c(C)cc(P(c2cc(C)c(OC)c(C)c2)c2cc(C)c(OC)c(C)c2)cc1C` had a melting point of 176 °C.

`O=C(O)C1Cc2c(c(Cl)cc3c(-c4ccccc4F)noc23)O1` (centres undefined) gave a melting point of 199 to 200 °C.

Take `Cc1cc(C=O)c2ccccc2c1O`: the melting point fell in the range of 160 to 161 °C.

For the compound `CCOC(=O)c1cc2cc(NC(=O)OCc3ccccc3)ccc2nn1`, the melting point is 205 °C.

In turn, `CN(CCOc1ccc(C=O)cc1)C(=O)OC(C)(C)C` gave a melting point of 62 to 65 °C.

`CC(C)n1nc(-c2nc(C(=O)O)c(N)nc2-c2ccccc2)ccc1=O` had a melting point of 233 to 235 °C.

The compound `O=C(O)[C@@H]1CN(C(=O)OCc2ccccc2)CCN1C(=O)N1c2ccccc2CCc2ccccc21` registered a melting point of 185 °C.

`CCCNC(=O)c1ccc(F)c2c1CC(N(CCCc1c[nH]c3ccc(F)cc13)C1CCC1)CO2` (centres undefined) returned a melting point of 67 °C.

`CCCCOc1cc(C(=O)O)cc(N)c1C(=O)c1ccc(C)cc1` yielded a melting point of 170 to 172 °C.

Regarding `CCCNC(=O)CCC(C)C1CCC2C3C(OC(C)=O)CC4CC(OO)(OO)CCC4(C)C3CC(OC(C)=O)C12C` (centres undefined), the melting point is 120 to 129 °C.

Turning to `CN1CCC2(CC1)OC(c1ccccc1)c1cc(O)ccc12` (centres undefined), the melting point was in the range of 193 to 200 °C.

In turn, `COc1ccc(/C=C/C(=O)C2C(=O)CC(c3ccc(OC)cc3)C([N+](=O)[O-])C2c2ccc(OC)cc2)cc1` (centres undefined) registered a melting point of 200 to 202 °C.

As to `Nc1ccc2oc(-c3cccc(O)c3)cc(=O)c2c1`, the melting point is 157 to 159 °C.

As to `CNC(=O)c1cc(-c2ccc(OC)c(OC)c2)nn(CC(C)C)c1=O`, the melting point lay within 111 to 113 °C.

Compound `COC1CCC(OC)C2=C1C=CC(O)(C(C)=O)C2` (single isomer, unassigned; (-)) showed a melting point of 130 to 132 °C.
